Numbers after ± are expanded uncertainties.
Columns and labels:
[1] = Crystal; DSC
[2] = Molar enthalpy of transition or fusion; settings: Crystal; DSC

With Cc1cnc(C(=O)O)cn1 [2-methylpyrazine-5-carboxylic acid] as the molecule, how does the Triple point temperature [1] read?
Its Triple point temperature is 440.35 ± 1.2 K.

And the “Molar enthalpy of transition or fusion” value [2]?
Its value is 6.84 ± 0.237 kcal/mol.

Reference: the NIST ThermoML archive (doi:10.1021/acs.jced.9b00406)
